The subject of this experiment is Male Sprague Dawley rats. Briefly: Forced swimming test (FST). As to conditions: for FST time spent immobile / decrease in FST time spent immobile vs Sal / decrease in FST time spent immobile vs Veh: Example G; for decrease in FST time spent immobile vs Sal / decrease in FST time spent immobile vs Veh: p<0.05. It is filed as in vivo, rat. On the procedure: Study Design. Twenty (20) male rats weighing between 175 and 200 g were randomized into 3 study groups (n=6-7/group), following a 5-day acclimation period. All rats were surgically implanted with bilateral IT cannulas in the PFC 2 weeks prior to dosing. […] Thirty minutes following the intrathecal infusions, either NV-5138 vehicle (Veh-NV, 0.5% methylcellulose/0.1% Tween-80) or NV-5138 (160 mg/kg) was administered by oral gavage. Each treatment group was assessed at the designated time following oral dosing in FST 24 hrs (day 1) LMA 48 hrs (day 2) and the NSFT 72 hrs (day 3 following a 20 hr period of fasting). LMA was measured to rule out overall changes in generally locomotor activity. The study design is presented in Table 11 with timeline of surgical procedures, test article administration and behavioral tests is provided in FIG. 20
Preparation of Test Articles. Rapamycin (Cell Signaling; #9904) was prepared in a solution of 10% DMSO (Veh-R) to a final concentration of 10 μM. R or Veh-R was administered bilaterally (0.005 nmol/0.5 μL per side) into the medial PFC via IT infusion 30 min prior to treatment with NV-5138 or Veh-NV by oral gavage. NV-5138 (lot #07) was prepared by dissolving in Veh (0.5% methylcellulose/0.1% Tween-80) at a concentration of 50 mg/mL. The dosing volume based on the weight of the animal (3.2 mL/kg) was administered by oral gavage to study animals in Groups 2 and 3.
Surgical Procedure and Administration of Rapamycin. Rats were steriotactically implanted with a guide cannula (22GA) into the medial PFC (coordinates from bregma: +3.2 AP, ±1.0 ML, -3.5 DV from dura). Surgical procedures were carried out under the anesthesia of Nembutal (i.p. 55 mg/kg). Postoperative care consisted in peri-surgical administration of carprofen (5 mg/kg) and topical triple antibiotic. After a 2-week recovery period, R (0.01 nmol in 1 μL for PFC infusion) or Veh-R was delivered at the rate of 0.25 μL/min with an injection cannula (26GA) protruding 0.5 mm beyond the guide cannula 30 min before oral administration of NV-5138 or Veh-NV.
Study Design. Forty-eight (48) male rats weighing between 175 and 200 g were randomized into 6 study groups (n=8/group), following a 5-day acclimation period. A single dose of all test articles was administered on day 0 and the behavioral tests were performed 3, 7 and 10 days later. Groups 1 and 2 were dosed on day 0 with NV-5138 (160 mg/kg by oral gavage) and Ket (10 mg/kg by i.p. injection), respectively and subjected to a FST on day 3. The rats in Group 3 and 4 received a single dose of the NV-5138 vehicle (Veh) or NV-5138 (160 mg/kg), respectively, by oral gavage on day 0. The rats in Group 5 and 6 received a single dose of the Ket vehicle (Sal) or Ket (10 mg/kg), respectively, by i.p. injection on day 0. The rats in groups 3-6 were subjected to a FST on day 7 and a NSFT on day 10. All rats in groups 3-6 were fasted the night before for 20 hours the NSFT.
Study Design. Twenty-four (24) male Sprague Dawley rats weighing between 175 and 200 g were randomized into 4 study groups (n=6/group), following a 5-day acclimation period. On study day minus 1 rats were subjected to a pre-swim. Beginning on study day 0, rats in Groups 2 received a dose of Ket (10 mg/kg) on alternate days (day 0, 2, 4, and 6) each by i.p. injection. The rats in Groups 1 received a daily dose of Veh by oral gavage for 7 days (days 0 to 6). The rats in Groups 3 and 4 received a daily dose of NV-5138 (40 or 80 mg/kg) for 7 days (days 0 to 6) each by oral gavage. All rats were subjected to the FST on day 7, 24 hrs after last dosing. On day 8, 48 hrs after last dosing, the LMA of all rats was measured in an open field. Rats were then fasted for 20 hrs and subjected to the NSFT on day 9 (72 hrs post-last dose).
Preparation of Test Articles. Ket (Sigma, cat #K1884) was dissolved in Sal at a concentration of 10 mg/mL. Injection volumes (i.p) of 1 mL/kg of Ket were administered to Group 2. […]

Where [1] appears, read: Ket 10 mg/kg i.p. single dose, 3 days after dose.
Where [2] appears, read: Ket 10 mg/kg i.p. single dose, 7 days after dose.
Setting [3] is: NV-5138 160 mg/kg oral single dose, 3 days after dose.
[4] abbreviates: NV-5138 160 mg/kg oral single dose, 7 days after dose.

For the molecule `CNC1(c2ccccc2Cl)CCCCC1=O` (stereo not drawn) [Ket, ketamine, reference compound], under setting [1], the “FST time spent immobile” value turned out to be 95.5 ± 7.8 s and the “decrease in FST time spent immobile vs Sal” value turned out to be 31%. In addition, under setting [2], the “FST time spent immobile” value came out at 95.0 ± 11.1 s and the “decrease in FST time spent immobile vs Sal” value was 31%.

Molecule `CC(C)(C[C@H](N)C(=O)O)C(F)F` [NV-5138] registered an FST immobility time (Example F, Veh-R IT infusion then NV-5138 160 mg/kg oral, 24 hrs after oral dosing) of 144 ± 15 s. Also, the “decrease in FST immobility time vs Veh-R/Veh-NV” value (Example F, Veh-R IT infusion then NV-5138 160 mg/kg oral, 24 hrs, p<0.0001) is given as 46%. In addition, under “Example F, rapamycin (R, 0.01 nmol) IT infusion into PFC 30 min before NV-5138 160 mg/kg oral, 24 hrs”, the “FST immobility time, R/NV-5138 vs Veh-R/Veh-NV” value was “lack of significant effect on immobility time”. Besides, the “FST time spent immobile” value is, setting by setting: under setting [3], 87.9 ± 9.0 s; under setting [4], 96.0 ± 11.3 s. Besides, the “decrease in FST time spent immobile vs Veh” value worked out at 39% under setting [3] and 34% under setting [4]. The FST result (Example I, NV-5138 80 mg/kg oral daily for 7 days, day 7, 24 hrs after last dosing) was “Significant effects”.

These data come from patent US20210228523A1, “MODULATORS OF SESTRIN-GATOR2 INTERACTION AND USES THEREOF” (Navitor Pharmaceuticals, Inc., priority 2017, published 2021).
